Experiments:
[1] = molecular target: T1, HTR2B (Homo sapiens, UniProt P41595); assay: GPCR calcium flux assay; format: cell-based
T1 construct: Pharmaron (Beijing, China), contract laboratory

[2] = tested on: STAT3 and AKT signaling; assay: Western blot of p-STAT3 and p-AKT in bone marrow-derived macrophages; format: cell-based, mouse; settings: BMMs, IL-4 20 ng/ml + 100 nM PGE2, 10 μM TP-16
Experimental: Briefly, cells and tumor tissues were lysed with radio immunoprecipitation assay buffer containing phosphatase and protease inhibitor cocktail (MedChemExpress, Monmouth Junction, NJ, USA). A total of 30‐80 μg of normalized total proteins from lysates were run on 6‐10% SDS‐polyacrylamide gels. The proteins transferred from gels to nitrocellulose membranes (Millipore, Billerica, MA, USA) were incubated with primary antibodies overnight at 4°C, washed, and incubated with secondary antibodies for 1 h at room temperature. Visual signals were detected using the LI‐COR Odyssey Infrared Imaging System (LI‐COR Biosciences, Lincoln, NE). Mouse protein primary antibodies used for Western blotting were listed as follows: COX2 (1:1000 dilution, 12282, CST), p‐Stat3 (1:2000 dilution, Tyr^705, 9145, CST), Stat3 (1:1000 dilution, 9139, CST), p‐Akt (1:2000 dilution, Ser^473, 4060, CST), Akt (1:1000 dilution, 9272, CST), Arg‐1 (1:100 dilution, 16001, Proteintech, Rosemont, IL), and GAPDH (1:10000 dilution, Ab181602, Abcam).

[3] = tested on: other 25 GPCRs; assay: GPCR selectivity (LANCE Ultra cAMP assay and calcium flux assay); settings: read-out: IC50 on other 25 GPCRs; LANCE Ultra cAMP and calcium flux assays
[4] = In vitro metabolic stability using liver microsome; format: in vitro ADME; settings: liver microsomes
[5] = molecular target: T2, HRH1 (Homo sapiens, UniProt P35367); assay: GPCR calcium flux assay; format: cell-based
T2 construct: Pharmaron (Beijing, China), contract laboratory

[6] = molecular target: T3, CHRM3 (Homo sapiens, UniProt P20309); assay: GPCR calcium flux assay; format: cell-based
T3 construct: Pharmaron (Beijing, China), contract laboratory

[7] = tested on: AOM/DSS-induced colorectal tumors; assay: AOM/DSS-induced colorectal cancer model; format: in vivo, mouse; settings: AOM/DSS mice, TP-16 75 mg/kg po daily, anti-PD-1 50 μg ip twice weekly, 5 weeks
Experimental: ; i.p.; Sigma‐Aldrich, St. Louis, MO, USA). After 1 week of rest, mice were provided with 2.5% DSS (MP Biomedicals, Santa Ana, CA, USA) in their drinking water for 5 days, followed by DSS‐free water for two weeks. The DSS treatment cycle was carried out three times in total, and mice were randomized into four groups and subjected to the therapeutic protocol. Mice were sacrificed at 37 days after the indicated treatments.
Single agent or combination treatment was designed as follows: TP‐16 (37.5, 75, 150 mg/kg) or celecoxib (100 mg/kg) was formulated in 0.5% carboxymethylcellulose sodium (CMC‐Na, Sangon Biotech, Shanghai, China) and administered via oral gavage daily. In vivo anti‐PD1 antibody (clone RMP1‐14, BioXCell, West Lebanon, NH, USA) and rat IgG2a isotype control (clone 2A3, BioXCell) were diluted in sterile PBS and administered intraperitoneally at a dose of 50 μg twice weekly.

[8] = molecular target: T4, ADRB2 (Homo sapiens, UniProt P07550); assay: GPCR calcium flux assay; format: cell-based
T4 construct: Pharmaron (Beijing, China) performed the assay

[9] = 14-day repeat-dose toxicity study in Sprague Dawley rats; format: in vivo; settings: for Nasal cavity: Normal: animals normal/examined
Experimental: (three males and three females). […]
orally administrated once daily for 14 days. Abnormal behaviors and mortality
were observed every day and b ody weight was recorded every three days.
Animals were sacrificed on day 15, and blood parameters and organ
morphology were recorded. […]

[10] = molecular target: DRD2 (Homo sapiens, UniProt P14416); assay: LANCE Ultra cAMP assay
[11] = molecular target: T5, human EP1 (Homo sapiens, UniProt P34995); assay: PGE2-induced calcium flux assay in CHO-Gα16 cells; format: cell-based
T5 construct: host or cells: CHO-Gα16

[12] = female, Sprague-Dawley, rat, in vivo, 100 mg/kg/day, 14 days
[13] = male, Sprague-Dawley, rat, in vivo, 100 mg/kg/day, 14 days

T1 sequence (P41595 whole entry, species assumed): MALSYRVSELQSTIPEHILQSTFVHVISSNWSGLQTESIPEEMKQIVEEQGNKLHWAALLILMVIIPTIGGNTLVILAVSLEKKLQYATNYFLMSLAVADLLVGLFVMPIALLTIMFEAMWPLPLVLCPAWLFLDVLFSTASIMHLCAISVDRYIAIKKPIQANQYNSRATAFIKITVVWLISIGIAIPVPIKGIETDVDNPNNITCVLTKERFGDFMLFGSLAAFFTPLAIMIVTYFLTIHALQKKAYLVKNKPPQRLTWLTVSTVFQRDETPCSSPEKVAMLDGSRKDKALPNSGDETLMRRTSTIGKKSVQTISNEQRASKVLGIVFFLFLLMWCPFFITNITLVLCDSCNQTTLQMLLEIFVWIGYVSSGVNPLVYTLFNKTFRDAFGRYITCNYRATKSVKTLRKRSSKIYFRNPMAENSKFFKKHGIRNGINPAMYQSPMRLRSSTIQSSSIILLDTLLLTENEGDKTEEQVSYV
T2 sequence (P35367 whole entry, species assumed): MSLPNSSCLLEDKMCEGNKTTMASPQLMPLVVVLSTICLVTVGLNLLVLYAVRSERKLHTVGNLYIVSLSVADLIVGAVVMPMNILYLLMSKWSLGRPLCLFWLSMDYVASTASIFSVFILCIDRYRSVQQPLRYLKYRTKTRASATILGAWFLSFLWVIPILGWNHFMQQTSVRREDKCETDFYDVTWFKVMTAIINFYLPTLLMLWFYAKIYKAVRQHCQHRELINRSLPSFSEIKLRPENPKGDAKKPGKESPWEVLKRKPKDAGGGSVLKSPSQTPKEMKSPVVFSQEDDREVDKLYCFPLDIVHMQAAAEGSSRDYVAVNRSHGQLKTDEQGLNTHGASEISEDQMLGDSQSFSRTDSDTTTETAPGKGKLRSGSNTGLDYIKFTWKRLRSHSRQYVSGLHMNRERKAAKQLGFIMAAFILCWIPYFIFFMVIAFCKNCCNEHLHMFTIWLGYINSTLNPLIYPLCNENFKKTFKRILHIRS
Sequence of DRD2 (P14416 whole entry, species assumed): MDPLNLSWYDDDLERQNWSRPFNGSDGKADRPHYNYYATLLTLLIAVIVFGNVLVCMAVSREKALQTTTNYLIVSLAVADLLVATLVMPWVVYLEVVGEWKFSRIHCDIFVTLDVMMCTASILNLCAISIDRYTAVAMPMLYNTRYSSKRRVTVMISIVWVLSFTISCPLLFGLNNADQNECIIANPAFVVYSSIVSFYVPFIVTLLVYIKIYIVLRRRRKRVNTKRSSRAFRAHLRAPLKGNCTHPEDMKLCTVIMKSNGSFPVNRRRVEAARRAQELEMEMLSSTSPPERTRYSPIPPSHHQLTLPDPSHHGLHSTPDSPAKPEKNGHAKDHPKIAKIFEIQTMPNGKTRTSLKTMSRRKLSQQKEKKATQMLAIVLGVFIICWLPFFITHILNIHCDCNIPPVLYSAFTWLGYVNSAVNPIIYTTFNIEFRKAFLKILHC
T4 sequence (P07550 whole entry, species assumed): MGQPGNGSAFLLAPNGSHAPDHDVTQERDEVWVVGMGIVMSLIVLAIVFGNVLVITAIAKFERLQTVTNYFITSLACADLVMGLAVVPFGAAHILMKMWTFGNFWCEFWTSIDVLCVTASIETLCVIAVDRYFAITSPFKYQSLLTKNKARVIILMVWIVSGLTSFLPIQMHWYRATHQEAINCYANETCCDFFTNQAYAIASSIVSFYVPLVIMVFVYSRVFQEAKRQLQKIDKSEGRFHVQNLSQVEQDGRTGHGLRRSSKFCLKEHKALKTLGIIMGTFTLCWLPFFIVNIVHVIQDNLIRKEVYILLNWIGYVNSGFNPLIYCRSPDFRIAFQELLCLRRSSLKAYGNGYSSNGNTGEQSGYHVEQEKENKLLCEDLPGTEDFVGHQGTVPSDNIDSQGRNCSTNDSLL
T5 sequence (P34995 whole entry): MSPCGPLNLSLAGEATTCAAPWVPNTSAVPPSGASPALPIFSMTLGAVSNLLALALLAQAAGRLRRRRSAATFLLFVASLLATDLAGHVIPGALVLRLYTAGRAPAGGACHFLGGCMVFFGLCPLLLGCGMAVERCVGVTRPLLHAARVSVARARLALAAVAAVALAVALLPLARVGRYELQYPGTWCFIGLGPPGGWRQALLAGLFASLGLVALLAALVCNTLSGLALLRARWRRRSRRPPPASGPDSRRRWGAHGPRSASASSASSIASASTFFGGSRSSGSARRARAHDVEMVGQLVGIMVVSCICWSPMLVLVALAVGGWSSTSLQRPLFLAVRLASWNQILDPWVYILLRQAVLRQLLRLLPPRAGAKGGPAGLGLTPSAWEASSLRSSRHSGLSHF
T3 sequence (P20309 whole entry, species assumed): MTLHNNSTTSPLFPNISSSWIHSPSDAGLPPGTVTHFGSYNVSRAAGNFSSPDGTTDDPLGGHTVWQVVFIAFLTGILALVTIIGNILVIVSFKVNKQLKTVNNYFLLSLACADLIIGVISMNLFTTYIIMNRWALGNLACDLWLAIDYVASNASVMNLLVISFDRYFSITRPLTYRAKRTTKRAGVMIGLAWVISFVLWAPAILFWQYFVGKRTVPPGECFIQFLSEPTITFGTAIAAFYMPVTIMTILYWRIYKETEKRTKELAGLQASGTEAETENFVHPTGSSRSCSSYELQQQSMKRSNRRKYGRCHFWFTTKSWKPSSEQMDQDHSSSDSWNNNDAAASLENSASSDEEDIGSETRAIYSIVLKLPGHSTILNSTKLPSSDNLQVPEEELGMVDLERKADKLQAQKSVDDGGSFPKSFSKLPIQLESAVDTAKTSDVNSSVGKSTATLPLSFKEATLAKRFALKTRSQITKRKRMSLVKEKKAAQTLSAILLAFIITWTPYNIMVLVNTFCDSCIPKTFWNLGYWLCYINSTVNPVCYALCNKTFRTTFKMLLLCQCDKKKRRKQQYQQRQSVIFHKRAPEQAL

Compound: C[C@H](NC(=O)c1c(Cc2ccc(F)cc2)sc2c1CCOC2)c1ccc(C(=O)O)cc1 [TP-16]
- IC50 [1]: > 10 µM
- IL-4/PGE2-induced phosphorylation of STAT3 and AKT [2]: significantly reversed
- IC50 [3]: > 10 µM
- CLhep predicted ([4]; human, read-out: Predicted hepatic Clint): < 4.69 mL/min/kg
- hepatocyte CLint ([4]; human liver microsome): < 2.39 µL/min/1e6 cells
- half-life ([4]; human liver microsome, read-out: In vitro T1/2): > 9.68 h
- CLint scaled ([4]; human liver microsome, read-out: Scale-up Clint): < 6.07 mL/min/kg
- IC50 [5]: > 10 µM
- IC50 [6]: > 10 µM
- tumor number (multiplicity) and size [7]: moderately reduced
- IC50 [8]: > 10 µM
- Nasal cavity: Normal ([9]; female rats, 100 mg/kg/day, 14 days): 3/3
- Brain: Normal [9, 12]: 3/3
- Cervical lymph node: Normal [9, 12]: 3/3
- Colon: Normal [9, 12]: 3/3
- Duodenum: Normal [9, 12]: 3/3
- Esophagus: Normal [9, 12]: 3/3
- Eye: Normal [9, 12]: 3/3
- Femur/Bone marrow: Normal [9, 12]: 3/3
- Harderian gland: Normal [9, 12]: 3/3
- Heart: Normal [9, 12]: 3/3
- Ileum: Normal [9, 12]: 3/3
- Jejunum: Normal [9, 12]: 3/3
- Kidney: Normal [9, 12]: 3/3
- Liver: Normal [9, 12]: 3/3
- Lung: Normal [9, 12]: 3/3
- Mesenteric lymph node: Normal [9, 12]: 3/3
- Ovary: Normal [9, 12]: 3/3
- Pancreas: Normal [9, 12]: 3/3
- Parathyroid gland: Normal [9, 12]: 3/3
- Pituitary gland: Normal [9, 12]: 3/3
- Preputial/Clitoral gland: Normal [9, 12]: 3/3
- Rectum: Normal [9, 12]: 3/3
- Salivary gland: Normal [9, 12]: 3/3
- Skin/ Mammary gland: Normal [9, 12]: 3/3
- Spleen: Normal [9, 12]: 3/3
- Stomach: Normal [9, 12]: 3/3
- Testis: Normal [9, 12]: 3/3
- Thymus: Normal [9, 12]: 3/3
- Thyroid gland: Normal [9, 12]: 3/3
- Trachea: Normal [9, 12]: 3/3
- Urinary bladder: Normal [9, 12]: 3/3
- Uterus: Normal [9, 12]: 3/3
- Vagina: Normal [9, 12]: 3/3
- Nasal cavity: Normal ([9]; male rats, 100 mg/kg/day, 14 days): 3/3
- Brain: Normal [9, 13]: 3/3
- Cervical lymph node: Normal [9, 13]: 3/3
- Colon: Normal [9, 13]: 3/3
- Duodenum: Normal [9, 13]: 3/3
- Epididymis: Normal [9, 13]: 3/3
- Esophagus: Normal [9, 13]: 3/3
- Eye: Normal [9, 13]: 3/3
- Femur/Bone marrow: Normal [9, 13]: 3/3
- Harderian gland: Normal [9, 13]: 3/3
- Heart: Normal [9, 13]: 3/3
- Ileum: Normal [9, 13]: 3/3
- Jejunum: Normal [9, 13]: 3/3
- Kidney: Normal [9, 13]: 3/3
- Liver: Normal [9, 13]: 3/3
- Lung: Normal [9, 13]: 3/3
- Mesenteric lymph node: Normal [9, 13]: 3/3
- Pancreas: Normal [9, 13]: 3/3
- Parathyroid gland: Normal [9, 13]: 3/3
- Pituitary gland: Normal [9, 13]: 3/3
- Preputial/Clitoral gland: Normal [9, 13]: 3/3
- Prostate: Normal [9, 13]: 3/3
- Rectum: Normal [9, 13]: 3/3
- Salivary gland: Normal [9, 13]: 3/3
- Seminal vesicle: Normal [9, 13]: 3/3
- Skin/ Mammary gland: Normal [9, 13]: 3/3
- Spleen: Normal [9, 13]: 3/3
- Stomach: Normal [9, 13]: 3/3
- Testis: Normal [9, 13]: 3/3
- Thymus: Normal [9, 13]: 3/3
- Thyroid gland: Normal [9, 13]: 3/3
- Trachea: Normal [9, 13]: 3/3
- Urinary bladder: Normal [9, 13]: 3/3
- body weight during 14-day treatment ([9]; rat, in vivo, po, 100 mg/kg): without statistically significant weight loss
- hematological analysis, overall finding ([9]; rat, in vivo, po, 100 mg/kg): no adverse changes
- organ morphology, overall finding ([9]; rat, in vivo, po, 100 mg/kg): no abnormalities
- IC50 [10]: > 10 µM
- IC50 [11]: > 10 µM

Source: article PMC7799360, “Reprogramming immunosuppressive myeloid cells facilitates immunotherapy for colorectal cancer” (EMBO Molecular Medicine, 2020)
